# According to patent US6875760B2 (Novo Nordisk A/S, priority 1999, dated 2005):
# Molecular target: T1, human glucagon receptor (Homo sapiens, UniProt P47871)
# T1 construct: expressed in transfected cells; host or cells: BHK (baby hamster kidney) cells
# Assay: Glucagon Binding Assay (III)
# Conditions: BHK cell membranes, WGA SPA beads, 125I-glucagon; read-out: Glu Bd Assay (III) IC50
# Summary of the method: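 Membranes from BHK cells transfected with the human receptor, prepared at 4 °C, were used in a WGA-bead scintillation proximity binding format. Plates were shaken for 4 hours, left to settle 8–48 hours and then counted. Non-specific binding was defined with 500 nM glucagon.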
# T1 sequence (P47871 26-477): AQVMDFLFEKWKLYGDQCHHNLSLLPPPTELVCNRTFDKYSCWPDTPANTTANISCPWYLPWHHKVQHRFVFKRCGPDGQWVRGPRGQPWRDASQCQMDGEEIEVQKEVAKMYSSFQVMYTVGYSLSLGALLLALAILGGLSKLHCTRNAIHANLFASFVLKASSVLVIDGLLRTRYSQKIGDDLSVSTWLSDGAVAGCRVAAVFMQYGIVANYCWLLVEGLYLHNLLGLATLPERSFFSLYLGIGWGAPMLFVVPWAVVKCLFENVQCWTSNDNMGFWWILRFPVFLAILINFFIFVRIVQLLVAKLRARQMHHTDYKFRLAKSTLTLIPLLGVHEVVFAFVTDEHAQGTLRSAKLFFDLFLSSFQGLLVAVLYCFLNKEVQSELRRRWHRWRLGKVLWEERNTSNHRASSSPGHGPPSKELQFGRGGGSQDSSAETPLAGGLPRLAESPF
row,Structure (SMILES),IC50 [nM]
1,"O=C(Nc1nn[nH]n1)c1ccc(CN(CC(c2ccccc2)c2ccccc2)C(=O)c2cc(-c3ccc(Cl)cc3)cs2)cc1 [Example 566, 4-(4-Chlorophenyl)thiophene-2-carboxylic acid (2,2-diphenyl-ethyl)-[4-(2H-tetrazol-5-ylcarbamoyl)benzyl]amide]",855
2,"CC(C)(C)C1CCC(N(Cc2ccc(C(=O)NCCC(=O)O)cc2)C(=O)Nc2cccc(S(C)(=O)=O)c2)CC1 (centres unmarked) [Example 252, 3-{4-[1-(4-tert-Butylcyclohexyl)-3-(3-methylsulfonylphenyl)ureidomethyl]benzoylamino}propionic acid]",1320
3,"CC(C)(C)c1ccc(N(Cc2ccc(C(=O)Nc3nn[nH]n3)cc2)C(=O)Nc2ccc3ncsc3c2)cc1 [Example 257, 4-[3-Benzothiazol-6-yl-1-(4-tert-butylphenyl)ureidomethyl]-N-(2H-tetrazol-5-yl)benzamide]",684
4,"CC(C)(C)C1CCC(N(Cc2ccc(C(=O)NCCC(=O)O)cc2)C(=O)Oc2cccc(OC(F)(F)F)c2)CC1 (centres unmarked) [Example 408, 3-(4-{[(4-tert-Butylcyclohexyl)-(3-trifluoromethoxyphenoxycarbonyl)amino]methyl}benzoylamino)propionic acid]",580
5,"CC(C)(C)C1CCC(N(Cc2ccc(C(=O)NCCC(=O)O)cc2)C(=O)Oc2ccc(-c3ccccc3)cc2)CC1 (centres unmarked) [Example 398, 3-(4-{[(Biphenyl-4-yloxycarbonyl)-(4-tert-butylcyclohexyl)amino]methyl}benzoylamino)propionic acid]",135
6,"O=C(O)CCNC(=O)c1ccc(CN(C(=O)Oc2ccc(Cl)cc2Cl)c2ccc(C3CCCCC3)cc2)cc1 [Example 416, 3-(4-{[(4-Cyclohexylphenyl)-(2,4-dichlorophenoxycarbonyl)amino]methyl}benzoylamino)propionic acid]",634
7,"CC(Oc1ccc(OC(F)(F)F)cc1)C(=O)N(Cc1ccc(C(=O)Nc2nn[nH]n2)cc1)CC(c1ccccc1)c1ccccc1 (centres unmarked) [Example 530, 4-({(2,2-Diphenylethyl)-[2-(4-trifluoromethoxyphenoxy)propionyl]amino}methyl)-N-(2H-tetrazol-5-yl)benzamide]",3980
8,"COc1ccc(NC(=O)N(Cc2ccc(C(=O)NCCC(=O)O)cc2)C2CCC(C(C)(C)C)CC2)cc1 (centres unmarked) [Example 31, 3-{4-[1-(4-tert-Butylcyclohexyl)-3-(4-methoxyphenyl)ureidomethyl]benzoyl}aminopropionic acid]",2200
9,"O=C(O)CCNC(=O)c1ccc(CN(C(=O)Nc2ccc(OC(F)(F)F)cc2)C(=O)Nc2ccc(OC(F)(F)F)cc2)cc1 [Example 383, 3-{4-[1,5-Bis(4-trifluoromethoxyphenyl)-3-biuretmethyl]benzoylamino}propionic acid]",931
10,"COc1ccc(NC(=O)N(Cc2ccc(C(=O)NCCC(=O)O)cc2)C2CCC(C(C)(C)C)CC2)cc1 (centres unmarked) [Example 59, 3-{4-[1-(4-tert-Butylcyclohexyl)-3-(4-methoxyphenyl)ureidomethyl]benzoylamino}propionic acid]",3800
11,"CCCCOc1ccc(N(Cc2ccc(C(=O)NCCC(=O)O)cc2)C(=O)Nc2ccc(OC(F)(F)F)cc2)cc1 [Example 435, 3-{4-[1-(4-Butoxyphenyl)-3-(4-trifluoromethoxyphenyl)ureidomethyl]benzoylamino}propionic acid]",374

# Next, values leading:
row,IC50 [nM],Structure (SMILES)
1,627,O=C(Nc1nn[nH]n1)c1ccc(CN(CC(c2ccccc2)c2ccccc2)C(=O)Cc2ccc(OC(F)(F)F)cc2)cc1 [Example 531]
2,621,"CC(Oc1cccc(Cl)c1)C(=O)N(Cc1ccc(C(=O)Nc2nn[nH]n2)cc1)c1ccc(C2CCCCC2)cc1 (centres unmarked) [Example 498, 4-{[[2-(3-Chlorophenoxy)propionyl]-(4-cyclohexylphenyl)amino]methyl}-N-(2H-tetrazol-5-yl)benzamide]"
3,540,"CC(C)(C)C1CCC(N(Cc2ccc(C(=O)Nc3nn[nH]n3)cc2)C(=O)CCC(=O)c2ccc(Cl)cc2)CC1 (centres unmarked) [Example 540, 4-({(4-tert-Butylcyclohexyl)-[4-(4-chlorophenyl)-4-oxobutyryl]amino}methyl)-N-(2H-tetrazol-5-yl)benzamide]"
4,337,"CCCCOC(=O)c1ccc(NC(=O)N(Cc2ccc(C(=O)NCCC(=O)O)cc2)CC(c2ccccc2)c2ccccc2)cc1 [Example 54, 4-[3-[4-(2-Carboxyethylcarbamoyl)benzyl]-3-(2,2-diphenylethyl)ureido]benzoic acid butyl ester]"
5,276,"O=C(Nc1nn[nH]n1)c1ccc(CN(C(=O)/C=C/c2c(Cl)cccc2Cl)c2ccc(C3CCCCC3)cc2)cc1 [Example 480, 4-({(4-Cyclohexylphenyl)-[3-(2,6-dichlorophenyl)acryloyl]amino}methyl)-N-(2H-tetrazol-5-yl)benzamide]"
6,229,"O=C(O)CCNC(=O)c1ccc(CN(C(=O)Nc2ccc(OC(F)(F)F)cc2)[C@H]2CC[C@@H](c3ccccc3)CC2)cc1 [Example 80, 3-{4-[1-(4-cis-Phenylcyclohexyl)-3-(4-trifluoromethoxyphenyl)ureidomethyl]benzoylamino}propionic acid]"
7,217,"O=C(Nc1nn[nH]n1)c1ccc(CN(C(=O)/C=C/c2ccccc2Br)c2ccc(C3CCCCC3)cc2)cc1 [Example 501, 4-{[[3-(2-Bromophenyl)acryloyl]-(4-cyclohexylphenyl)amino]methyl}-N-(2H-tetrazol-5-yl)benzamide]"
8,204,"CC(C)(C)C1CCC(N(Cc2ccc(C(=O)Nc3nn[nH]n3)cc2)C(=O)Nc2cccc(S(C)(=O)=O)c2)CC1 (centres unmarked) [Example 445, 4-[1-(4-tert-Butylcyclohexyl)-3-(3-methylsulfonylphenyl)ureidomethyl]-N-(2H-tetrazol-5-yl)benzamide]"
9,149,"CS(=O)(=O)c1ccc(F)c(NC(=O)N(Cc2ccc(C(=O)Nc3nn[nH]n3)cc2)c2ccc(C3CCCCC3)cc2)c1 [Example 260, 4-[1-(4-Cyclohexylphenyl)-3-(2-fluoro-5-methylsulfonylphenyl)ureidomethyl]-N-(2H-tetrazol-5-yl)benzamide]"
10,136,"O=C(Nc1nn[nH]n1)c1ccc(CN(C(=O)Cc2ccc3ccccc3c2)c2ccc(C3CCCCC3)cc2)cc1 [Example 499, 4-{[(4-Cyclohexylphenyl)-(2-naphth-2-ylacetyl)amino]methyl}-N-(2H-tetrazol-5-yl)benzamide]"
11,135,"CCC[C@H]1CC[C@H](N(Cc2ccc(C(=O)NCCC(=O)O)cc2)C(=O)Nc2ccc(OC(F)(F)F)cc2)CC1 [Example 76, 3-{4-[1-(4-trans-Propylcyclohexyl)-3-(4-trifluoromethoxyphenyl)ureidomethyl]benzoylamino}propionic acid]"
12,119,"O=C(Nc1nn[nH]n1)c1ccc(CN(C(=O)Nc2cc(C(F)(F)F)ccc2C(F)(F)F)c2ccc(C3=CCCCC3)cc2)cc1 [Example 361, 4-[3-(2,5-Bis(trifluoromethyl)phenyl)-1-(4-cyclohex-1-enylphenyl)ureidomethyl]-N-(2H-tetrazol-5-yl)benzamide]"
13,73,"CC(C)N1C(=O)c2ccc(NC(=O)N(Cc3ccc(C(=O)NCCC(=O)O)cc3)c3ccc(C(C)(C)C)cc3)cc2C1=O [Example 630, 3-{4-[1-(4-tert-Butylphenyl)-3-(N′-isopropylphthalimid-4-yl)ureidomethyl]benzoylamino}propionic acid]"
14,62,"CSc1cccc(NC(=O)N(Cc2ccc(C(=O)Nc3nn[nH]n3)cc2)c2ccc(C3CCCCC3)cc2)c1 [Example 302, 4-[1-(4-Cyclohexylphenyl)-3-(3-methylsulfanylphenyl)ureidomethyl]-N-(2H-tetrazol-5-yl)benzamide]"
15,57,"CC(=O)c1cccc(NC(=O)N(Cc2ccc(C(=O)Nc3nn[nH]n3)cc2)c2ccc(C3CCCCC3)cc2)c1 [Example 283, 4-[3-(3-Acetylphenyl)-1-(4-cyclohexylphenyl)ureidomethyl]-N-(2H-tetrazol-5-yl)benzamide]"
16,49,"CCC(C)(C)[C@H]1CC[C@H](N(Cc2ccc(C(=O)NCCC(=O)O)cc2)C(=O)Nc2ccc(OC(F)(F)F)cc2)CC1 [Example 78, 3-{4-[1-[4-trans-(1,1-Dimethylpropyl)cyclohexyl]-3-(4-trifluoromethoxyphenyl)ureidomethyl]benzoylamino}propionic acid]"
17,26,"O=C(Nc1nn[nH]n1)c1ccc(CN(C(=O)Nc2cccc([N+](=O)[O-])c2)c2ccc(C3CCCCC3)cc2)cc1 [Example 286, 4-[1-(4-Cyclohexylphenyl)-3-(3-nitrophenyl)ureidomethyl]-N-(2H-tetrazol-5-yl)benzamide]"
18,21,"O=C(Nc1nn[nH]n1)c1ccc(CN(C(=O)Nc2cccc(OC(F)(F)F)c2)c2ccc(C3=CCCCC3)cc2)cc1 [Example 352, 4-[1-(4-Cyclohex-1-enylphenyl)-3-(3-trifluoromethoxyphenyl)ureidomethyl]-N-(2H-tetrazol-5-yl)benzamide]"
19,19,"O=C(Nc1nn[nH]n1)c1ccc(CN(C(=O)Nc2ccc3c(c2)C(F)(F)OC(F)(F)O3)c2ccc(C3=CCCCC3)cc2)cc1 [Example 358, 4-[1-(4-Cyclohex-1-enylphenyl)-3-(2,2,4,4-tetrafluoro-4H-benzo[1,3]dioxin-6-yl)ureidomethyl]-N-(2H-tetrazol-5-yl)benzamide]"

# Same assay, conditions: Glu Bd Assay (III) IC50 (nM), BHK cell membranes, WGA SPA beads, 125I-glucagon
row,Structure (SMILES),IC50 [nM]
1,"CC(C)(C)[C@H]1CC[C@H](N(Cc2ccc(C(=O)NCCC(=O)O)cc2)C(=O)Nc2ccc(OCC3CC3)cc2C(F)(F)F)CC1 [Example 250, 3-{4-[1-(trans-4-tert-Butylcyclohexyl)-3-(4-cyclopropylmethoxy-2-trifluoromethylphenyl)ureidomethyl]benzoylamino}propionic acid]",182
2,"CC(C)(C)[C@H]1CC[C@@H](N(Cc2ccc(C(=O)NCCC(=O)O)cc2)C(=O)Nc2ccc(OC(F)(F)F)cc2)CC1 [Example 93, 3-{4-[1-(cis-4-tert-Butylcyclohexyl)-3-(4-trifluoromethoxy-phenyl)ureidomethyl]benzoylamino}propionic acid]",47
